From patent US20140148484A1, “PYRAZOLE COMPOUNDS FOR TREATING HAIRLOSS” (Boehringer Ingelheim International GmbH, priority 2012, published 2014)

Each molecule was assayed against T1, human CRTH2 receptor (Homo sapiens, UniProt Q9Y5Y4) (assay: Human CRTH2 receptor membrane radioligand binding assay (SPA, [3H]-PGD2)). Details: displacement of [3H]-PGD2 (1 nM) from CHO-K1-hCRTH2 cell membranes, 3 h room temperature.
T1 construct: host or cells: CHO-K1 (CHO-K1-hCRTH2 cells); membranes prepared in house from the purchased cell line
T1 sequence (Q9Y5Y4 1-395): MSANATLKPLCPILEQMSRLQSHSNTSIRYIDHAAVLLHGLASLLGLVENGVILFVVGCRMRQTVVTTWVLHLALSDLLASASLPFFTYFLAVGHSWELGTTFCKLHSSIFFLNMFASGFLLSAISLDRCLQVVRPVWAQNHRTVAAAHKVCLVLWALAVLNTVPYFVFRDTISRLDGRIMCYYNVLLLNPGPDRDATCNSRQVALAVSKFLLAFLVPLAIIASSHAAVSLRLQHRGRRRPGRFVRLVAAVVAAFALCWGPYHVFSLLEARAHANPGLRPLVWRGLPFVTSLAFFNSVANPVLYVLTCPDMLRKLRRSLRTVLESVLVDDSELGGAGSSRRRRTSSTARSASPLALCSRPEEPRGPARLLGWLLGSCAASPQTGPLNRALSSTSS
Procedure: Preparation of Human CRTH2 Receptor Membranes and Radioligand Binding Assay
The binding of CRTH2 antagonists is determined using membranes prepared from Chinese hamster ovary cells (CHO-K1 cells) transfected with the human CRTH2 receptor (CHO-K1-hCRTH2 cells, Perkin Elmer, Cat No ES-561-C). To produce cell membranes the CHO-K1-hCRTH2 cells are cultured in suspension in CHO SFMII medium supplemented with 400 μg/ml G418. The cells are harvested by centrifugation at 300 g for 10 min at room temperature. The cell pellet is resuspended in Phosphate Buffer Saline (PBS) including a protease inhibitor mix (Complete, Roche) and adjusted to a concentration of 10E7 cells/ml. The CHO-K1-hCRTH2 cells are disrupted by nitrogen […] to obtain the membrane preparation. Cell debris is removed by centrifugation (500 g at 4° C., 30 min) and the supernatant is transferred into fresh tubes followed by a second centrifugation at 40000 g for 1 h at 4° C. to sediment the membranes. The membranes are suspended in SPA incubation buffer (50 mM Tris HCl, 10 mM MgCl2, 150 mM NaCl, 1 mM EDTA, pH 7.4) without bovine serum albumin, homogenized by passing through a single use needle (Terumo, 23G×1″), and stored in aliquots at −80° C.
The CRTH2 receptor binding assay is performed in a scintillation proximity assay (SPA) format with the radioligand [^3H]-PGD2 (Perkin Elmer, NET616000MC). CHO-K1-hCRTH2 cell membranes are again homogenized by passing through a single use needle (Terumo, 23G×1″) and diluted in SPA incubation buffer in suitable concentrations (0.5-10 μg protein/well). The SPA assay is set up in 96 well microtiter plates (Perkin Elmer, CatNo. 6005040) in SPA incubation buffer with a final volume of 200 μl per well and final concentration of 50 mM Tris-HCl, 10 mM MgCl2, 150 mM NaCl, 1 mM EDTA pH 7.4, 0.1% bovine serum albumin). The SPA assay mixture contains 60 μl of the membrane suspension, 80 μl of Wheat Germ Agglutinin coated PVT beads (GE Healthcare, RPNQ-0001, 0.3 mg/well), 40 μl of [3H]-PGD2 diluted in SPA buffer to a final concentration of 1 nM (50 000 dpm) and 20 μl of the test compound (dissolved in dimethylsulfoxid). The SPA assay mixture is incubated for 3 h at room temperature. Bound radioactivity is determined with a scintillation counter (Micro Beta Trilux, Wallac).
The binding of [^3H]-PGD2 to CHO-K1-hCRTH2 cell membranes is determined in the absence (total binding, Bo) and presence (non-specific binding, NSB) of unlabelled PGD2 (1 μM, Cayman Chemical, Cat No 12010) or a reference CRTH2 antagonist (10 μM CAY10471, Cayman Chemical, Cat No 10006735).
Determination of the affinity of a test compound is calculated by subtraction of the non-specific binding (NSB) from the total binding (Bo) or the binding in the presence of the test compound (B) at a given compound concentration. […] The Bo−NSB value is set to 0% inhibition.
`Cc1nn(Cc2ccc(NC(=O)OCc3ccccc3)cc2Cl)c(C)c1CC(=O)O` [Example 3.13] gave a Ki of 4.7 nM. With `Cc1nn(Cc2ccc(NC(=O)/C=C/c3ccccc3)cc2F)c(C)c1CC(=O)O` [Example 7.21] the Ki was 1.9 nM. In the case of `Cc1nn(Cc2ccc(NC(=O)c3ccc(C(F)(F)F)cc3F)cc2)c(C)c1CC(=O)O` [Example 1.22], the Ki is reported as 3320 nM. Molecule `Cc1nn(Cc2ccc(NC(=O)c3cc4ccccc4cc3Cl)cc2)c(C)c1CC(=O)O` [Example 1.23] has a Ki of 5.7 nM. For `Cc1nn(Cc2ccc(NC(=O)c3ccc(C(F)(F)F)cc3)cc2)c(C)c1CCC(=O)O` [Example 8.2], the Ki was 125 nM. For `Cc1nn(Cc2ccc(NC(=O)c3ccc(Cl)c(Cl)c3)cc2)c(-c2ccccc2)c1CC(=O)O` [Example 2.10], the Ki was 0.8 nM. Work on `CCc1nn(Cc2ccc(OCc3cccc(C(F)(F)F)c3)cc2)c(CC)c1CC(=O)O` [Example 13.10] yielded a Ki of 19.6 nM. `Cc1nn(Cc2ccc(S(=O)(=O)Nc3ccc(F)cc3)cc2)c(C)c1CC(=O)O` [Example 10.1] showed a Ki of 2.6 nM. `CCc1nn(Cc2ccc(NC(=O)c3ccc(C(F)(F)F)cc3)cc2)c(C2CC2)c1CC(=O)O` [Example 2.50] was tested, and the Ki was 0.1 nM. `Cc1nn(Cc2ccc(NC(=O)c3ccc(Cl)c(Cl)c3)cc2)c(C)c1CC(=O)O` [Example 1.8] was tested, and the Ki was 2.6 nM. With `CCc1nn(Cc2ccc(C(=O)N[C@H]3CC[C@H](c4ccccc4)CC3)cc2)c(CC)c1CC(=O)O` [Example 9.21] the Ki was 7.8 nM. `Cc1nn(Cc2ccc(COc3ccc(Cl)c(Cl)c3)cc2)c(C)c1CC(=O)O` [Example 14.2] was tested, and the Ki was 43 nM. For `Cc1cc(Cl)ccc1C(=O)Nc1ccc(Cn2nc(C)c(CCC(=O)O)c2C)cc1` [Example 8.1], the Ki was 1660 nM. With `COc1ccc(C(=O)Nc2ccc(Cn3nc(C)c(CC(=O)O)c3C)cc2)cc1` [Example 1.5] the Ki was 12.9 nM. Molecule `CCc1nn(Cc2ccc(NC(=O)c3cc(C)ccc3Br)cc2)c(CC)c1CC(=O)O` [Example 2.19] has a Ki of 5.8 nM. `CCc1nn(Cc2ccc(C(=O)NC3CCC4CCCCC4C3)cc2)c(CC)c1CC(=O)O` (stereo not drawn) [Example 9.25] showed a Ki of 32.1 nM. For `CCc1nn(Cc2ccc(NC(=O)c3ccc4ccccc4c3Br)cc2)c(CC)c1CC(=O)O` [Example 2.26], the Ki was 3.6 nM. With `CCc1nn(Cc2ccc(NC(=O)c3ccc(Br)cc3C)cc2)c(CC)c1CC(=O)O` [Example 2.17] the Ki was 0.7 nM. `CCc1nn(Cc2ccc([S+]([O-])Cc3ccc(Cl)c(Cl)c3)cc2)c(CC)c1CC(=O)O` (stereo not drawn) [Example 19.3] was tested, and the Ki was 12.2 nM. `CCc1nn(Cc2ccc(NC(=O)c3ccc(Cl)cc3C)cc2)c(CC)c1CC(=O)O` [Example 2.2] showed a Ki of 1.1 nM. `CCc1nn(Cc2ccc(OCc3ccc(OC(F)(F)F)c(Cl)c3)cc2)c(CC)c1CC(=O)O` [Example 13.11] was tested, and the Ki was 48.8 nM. With `Cc1c(CC(=O)O)c(-c2ccccc2)nn1Cc1ccc(NC(=O)c2ccc3ccccc3c2)cc1` [Example 2.12] the Ki was 2.3 nM. In the case of `Cc1c(CC(=O)O)c(-c2ccccc2)nn1Cc1ccc(NC(=O)c2ccc(Cl)c(Cl)c2)cc1` [Example 2.13], the Ki is reported as 2.9 nM. `Cc1nn(Cc2ccc(C(=O)Nc3cccc(C(F)(F)F)c3)cc2)c(C)c1CC(=O)O` [Example 9.5] gave a Ki of 13.7 nM. `CCc1nn(Cc2ccc(NC(=O)c3ccc(Cl)c(Cl)c3)cc2)c(CC)c1CC(=O)O` [Example 2.6] gave a Ki of 0.25 nM. For `CCc1nn(Cc2ccc(C(=O)NCc3ccc(C(F)(F)F)cc3)cc2)c(CC)c1CC(=O)O` [Example 9.20], the Ki was 38 nM. `Cc1nn(Cc2ccc(NS(=O)(=O)c3ccc(Cl)cc3)cc2)c(C)c1CC(=O)O` [Example 5.2] was tested, and the Ki was 33.7 nM. Molecule `Cc1nn(Cc2ccc(C(=O)Nc3ccc(Cl)c(C(F)(F)F)c3)cc2)c(C)c1CC(=O)O` [Example 9.6] has a Ki of 3 nM. Molecule `CCc1nn(Cc2ccc(NC(=O)OCc3ccccc3)cc2)c(CC)c1CC(=O)O` [Example 3.3] has a Ki of 0.3 nM. In the case of `CCc1nn(Cc2ccc(NC(=O)c3cccc4c3CCCC4)cc2)c(CC)c1CC(=O)O` [Example 2.21], the Ki is reported as 0.5 nM. `Cc1nn(Cc2ccc(COc3ccc(C(F)(F)F)cc3)cc2)c(C)c1CC(=O)O` [Example 14.1] was tested, and the Ki was 1530 nM. For `Cc1ccc(C(=O)Nc2ccc(Cn3nc(C)c(CC(=O)O)c3C)cc2)c(C(F)(F)F)c1` [Example 1.21], the Ki was 80.2 nM. `Cc1ccc(C(=O)Nc2ccc(Cn3nc(C)c(CC(=O)O)c3C)cc2)c(F)c1` [Example 1.20] gave a Ki of 29.3 nM. Work on `CCc1nn(Cc2ccc(NC(=O)c3cccc4ccccc34)cc2)c(C2CC2)c1CC(=O)O` [Example 2.48] yielded a Ki of 1.8 nM. In the case of `Cc1c(CC(=O)O)cnn1Cc1ccc(NC(=O)c2ccc3ccccc3c2)cc1` [Example 2.55], the Ki is reported as 21.6 nM. In the case of `Cc1nn(Cc2ccc(C(C)Oc3ccc(Cl)c(Cl)c3)cc2)c(C)c1CC(=O)O` (stereo not drawn) [Example 14.4], the Ki is reported as 29 nM. With `Cc1nn(Cc2ccc(NC(=O)c3ccc(Cl)c(Cl)c3)cc2F)c(C)c1CC(=O)O` [Example 7.18] the Ki was 2.4 nM. `Cc1cc(C(F)(F)F)ccc1C(=O)Nc1ccc(Cn2nc(C)c(CC(=O)O)c2C)c(F)c1` [Example 7.16] was tested, and the Ki was 3.5 nM. `CCc1nn(Cc2ccc(S(=O)(=O)Nc3ccc(Cl)c(Cl)c3)cc2)c(CC)c1CC(=O)O` [Example 10.4] was tested, and the Ki was 21.6 nM. `Cc1nn(Cc2ccc(NC(=O)c3ccc(C(F)(F)F)cc3)cc2F)c(C)c1CC(=O)O` [Example 7.17] showed a Ki of 1.1 nM. `Cc1nn(Cc2ccc(C#Cc3ccc(C(F)(F)F)cc3)cc2)c(C)c1CC(=O)O` [Example 12.1] was tested, and the Ki was 127 nM. `Cc1nn(Cc2ccc(NC(=O)c3ccc(Cl)cc3)cc2)c(C)c1CC(=O)O` [Example 1.6] showed a Ki of 3.5 nM. `CCc1nn(Cc2ccc(NC(=O)OCc3ccc4ccccc4c3)cc2)c(CC)c1CC(=O)O` [Example 3.12] showed a Ki of 0.1 nM. In the case of `Cc1cc(Cl)ccc1COc1ccc(Cn2nc(C)c(CC(=O)O)c2C)cc1` [Example 13.3], the Ki is reported as 619 nM. In the case of `Cc1nn(Cc2ccc(C(=O)Nc3cc(Cl)cc(Cl)c3)cc2)c(C)c1CC(=O)O` [Example 9.8], the Ki is reported as 31 nM. `Cc1nn(Cc2ccc(NC(=O)c3ccc(Cl)cc3F)cc2)c(C)c1CC(=O)O` [Example 1.19] gave a Ki of 16.2 nM. Molecule `Cc1cc(Cn2nc(C)c(CC(=O)O)c2C)ccc1NC(=O)c1ccc(C(F)(F)F)cc1` [Example 7.3] has a Ki of 13.5 nM. `CCc1nn(Cc2ccc(C(=O)NCc3ccc(Cl)c(Cl)c3)cc2)c(CC)c1CC(=O)O` [Example 9.18] gave a Ki of 24.9 nM. `Cc1c(CC(=O)O)cnn1Cc1ccc(NC(=O)c2ccc(Cl)c(Cl)c2)cc1` [Example 2.56] was tested, and the Ki was 27.8 nM. In the case of `CCc1nn(Cc2ccc(C(=O)Nc3ccc(Cl)c(F)c3)cc2)c(CC)c1CC(=O)O` [Example 9.11], the Ki is reported as 7.1 nM. With `CCc1nn(Cc2ccc(C(=O)NCc3ccc(Cl)c(C(F)(F)F)c3)cc2)c(CC)c1CC(=O)O` [Example 9.19] the Ki was 30.5 nM. In the case of `Cc1nn(Cc2ccc(NC(=O)c3ccc(C(F)(F)F)cc3)cc2)c(C)c1CC(=O)O` [Example 1.1], the Ki is reported as 2.9 nM. For `CCc1nn(Cc2ccc(NC(=O)c3ccccc3C3CC3)cc2)c(CC)c1CC(=O)O` [Example 2.35], the Ki was 11.6 nM. Molecule `CCCc1c(C)cccc1C(=O)Nc1ccc(Cn2nc(CC)c(CC(=O)O)c2CC)cc1` [Example 2.27] has a Ki of 4.3 nM. With `Cc1cc2ccccc2cc1C(=O)Nc1ccc(Cn2nc(C)c(CC(=O)O)c2C)cc1` [Example 1.25] the Ki was 3.1 nM. With `Cc1cc(C(F)(F)F)ccc1C(=O)Nc1ccc(Cn2nc(C)c(CC(=O)O)c2C)c(Cl)c1` [Example 7.14] the Ki was 1.6 nM. For `Cc1nn(Cc2ccc(C(=O)Cc3ccccc3)cc2)c(C)c1CC(=O)O` [Example 15.2], the Ki was 552 nM.
